Results reported in ChEMBL document CHEMBL3044757, “Design, synthesis and in vitro antimicrobial activity of novel phenylbenzamido-aminothiazole-based azasterol mimics” (2013).
Converted amounts (≈) assume the structure as drawn. The source made the active and inactive calls. The calls are words filed in the database; no cut-off is given here.

How the values were obtained:
Type in all cases: functional
Enterobacter cloacae = test: Antibacterial activity against Enterobacter cloacae assessed as growth inhibition after 18 to 24 hr by resazurin assay
Fusarium oxysporum [1] = test: Antifungal activity against Fusarium oxysporum assessed as inhibition of fungal spore germination after 24 hr by compound microscopic analysis relative to control
Bacillus licheniformis = test: Antibacterial activity against Bacillus licheniformis assessed as growth inhibition after 18 to 24 hr by resazurin assay
Alternaria alternata [2] = test: Antifungal activity against Alternaria alternata assessed as inhibition of fungal spore germination after 24 hr by compound microscopic analysis relative to control
Curvularia lunata [3] = test: Antifungal activity against Curvularia lunata assessed as inhibition of fungal spore germination after 24 hr by compound microscopic analysis relative to control
Escherichia coli = test: Antibacterial activity against Escherichia coli assessed as growth inhibition after 18 to 24 hr by resazurin assay
Fusarium oxysporum [4] = test: Antifungal activity against Fusarium oxysporum assessed as inhibition of fungal spore germination after 24 hr by compound microscopic analysis relative to nystatin
Alternaria alternata [5] = test: Antifungal activity against Alternaria alternata assessed as inhibition of fungal spore germination after 24 hr by compound microscopic analysis relative to nystatin
Curvularia lunata [6] = test: Antifungal activity against Curvularia lunata assessed as inhibition of fungal spore germination after 24 hr by compound microscopic analysis relative to nystatin
[7] = tested on: Mycobacterium tuberculosis; test: Antibacterial activity against Mycobacterium tuberculosis H37Rv assessed as growth inhibition after 5 days by microplate Alamar blue assay; details: 120 h
[8] = dose or concentration not given here

Nc1nc(-c2ccc(NC(=O)c3ccccc3)cc2)c(/N=N/c2cccc([N+](=O)[O-])c2)s1
MIC (Enterobacter cloacae): 250 µg/mL (≈ 562 µM)
inhibition (Fusarium oxysporum [1]): inactive
MIC (Bacillus licheniformis): 0.0625 µg/mL (≈ 0.141 µM)
inhibition (Alternaria alternata [2]): inactive
inhibition (Curvularia lunata [3]): inactive
MIC (Escherichia coli): 62.5 µg/mL (≈ 141 µM)

Cc1ccc(/N=N/c2sc(N)nc2-c2ccc(NC(=O)c3ccccc3)cc2)cc1
MIC (Enterobacter cloacae): 250 µg/mL (≈ 605 µM)
inhibition (Fusarium oxysporum [1]): inactive
MIC (Bacillus licheniformis): 0.125 µg/mL (≈ 0.302 µM)
inhibition (Alternaria alternata [2]): inactive
inhibition (Curvularia lunata [3]): inactive
MIC (Escherichia coli): 125 µg/mL (≈ 302 µM)

Nc1nc(-c2ccc(NC(=O)c3ccccc3)cc2)c(/N=N/c2ccc([N+](=O)[O-])cc2)s1
MIC (Enterobacter cloacae): 125 µg/mL (≈ 281 µM)
MIC (Bacillus licheniformis): 0.0312 µg/mL (≈ 0.0703 µM)
MIC (Escherichia coli): 62.5 µg/mL (≈ 141 µM)

Nc1nc(-c2ccc(NC(=O)c3ccccc3)cc2)c(/N=N/c2ccccc2[N+](=O)[O-])s1
MIC (Enterobacter cloacae): 250 µg/mL (≈ 562 µM)
MIC (Bacillus licheniformis): 0.125 µg/mL (≈ 0.281 µM)
fold change (FC) (Fusarium oxysporum [4]): 1.49
fold change (FC) (Alternaria alternata [5]): 1.71
MIC (Escherichia coli): 125 µg/mL (≈ 281 µM)

Nc1nc(-c2ccc(NC(=O)c3ccccc3)cc2)c(/N=N/c2cccc(Cl)c2)s1
MIC (Enterobacter cloacae): 250 µg/mL (≈ 576 µM)
inhibition (Fusarium oxysporum [1]): inactive
MIC (Bacillus licheniformis): 0.125 µg/mL (≈ 0.288 µM)
inhibition (Alternaria alternata [2]): inactive
inhibition (Curvularia lunata [3]): inactive
MIC (Escherichia coli): 250 µg/mL (≈ 576 µM)

COc1ccc(/N=N/c2sc(N)nc2-c2ccc(NC(=O)c3ccccc3)cc2)cc1
MIC (Enterobacter cloacae): 250 µg/mL (≈ 582 µM)
inhibition (Fusarium oxysporum [1]): inactive
MIC (Bacillus licheniformis): 0.125 µg/mL (≈ 0.291 µM)
inhibition (Alternaria alternata [2]): inactive
inhibition (Curvularia lunata [3]): inactive
MIC (Escherichia coli): 7.8 µg/mL (≈ 18.2 µM)

Nc1nc(-c2ccc(NC(=O)c3ccccc3)cc2)c(/N=N/c2ccccc2)s1
MIC (Enterobacter cloacae): 250 µg/mL (≈ 626 µM)
inhibition (Fusarium oxysporum [1]): inactive
MIC (Bacillus licheniformis): 0.25 µg/mL (≈ 0.626 µM)
inhibition (Alternaria alternata [2]): inactive
inhibition (Curvularia lunata [3]): inactive
MIC (Escherichia coli): 62.5 µg/mL (≈ 156 µM)

Nc1nc(-c2ccc(NC(=O)c3ccccc3)cc2)c(/N=N/c2ccc(Br)cc2)s1
MIC (Enterobacter cloacae): 250 µg/mL (≈ 523 µM)
MIC (Bacillus licheniformis): 0.25 µg/mL (≈ 0.523 µM)
fold change (FC) (Fusarium oxysporum [4]): 2.07
fold change (FC) (Alternaria alternata [5]): 1.11
MIC (Escherichia coli): 250 µg/mL (≈ 523 µM)

Nc1nc(-c2ccc(NC(=O)c3ccccc3)cc2)c(/N=N/c2ccc(Cl)cc2)s1
MIC (Enterobacter cloacae): 250 µg/mL (≈ 576 µM)
inhibition (Fusarium oxysporum [1]): inactive
MIC (Bacillus licheniformis): 0.125 µg/mL (≈ 0.288 µM)
inhibition (Alternaria alternata [2]): inactive
inhibition (Curvularia lunata [3]): inactive
MIC (Escherichia coli): 250 µg/mL (≈ 576 µM)

O=C(N[C@H](CO)[C@H](O)c1ccc([N+](=O)[O-])cc1)C(Cl)Cl [CHLORAMPHENICOL]
MIC (Enterobacter cloacae): 3.9 µg/mL (≈ 12.1 µM)
MIC (Bacillus licheniformis): 0.0039 µg/mL (≈ 0.0121 µM)
MIC (Escherichia coli): 3.9 µg/mL (≈ 12.1 µM)

Nc1nc(-c2ccc(NC(=O)c3ccccc3)cc2)c(/N=N/c2ccccc2Cl)s1
MIC (Enterobacter cloacae): 250 µg/mL (≈ 576 µM)
fold change (FC) (Curvularia lunata [6]): 1.73
MIC (Bacillus licheniformis): 0.125 µg/mL (≈ 0.288 µM)
fold change (FC) (Fusarium oxysporum [4]): 1.17
fold change (FC) (Alternaria alternata [5]): 1.8
MIC (Escherichia coli): 125 µg/mL (≈ 288 µM)

Nc1nc(-c2ccc(NC(=O)c3ccccc3)cc2)cs1
MIC (Enterobacter cloacae): 250 µg/mL (≈ 846 µM)
fold change (FC) (Curvularia lunata [6]): 1.06
MIC [7]: 16 µg/mL (≈ 54.2 µM)
MIC (Bacillus licheniformis): 0.125 µg/mL (≈ 0.423 µM)
fold change (FC) (Alternaria alternata [5]): 1.31
MIC (Escherichia coli): 7.8 µg/mL (≈ 26.4 µM)

NYSTATIN
inhibition (Fusarium oxysporum [1]; [8]): 100%
inhibition (Alternaria alternata [2]; [8]): 100%
inhibition (Curvularia lunata [3]; [8]): 100%
